Laboratory results published in ChEMBL document CHEMBL1132189, “Three-dimensional quantitative structure-activity relationship analyses using comparative molecular field analysis and comparative molecular similarity indices analysis to elucidate selectivity differences of inhibitors binding to trypsin, thrombin, and factor Xa” (J Med Chem, 1999).

Assays:
Coagulation factor X = Coagulation factor X (Homo sapiens, UniProt P00742); test: Binding affinity towards Coagulation factor Xa
Serine protease 1 = target: T1, Serine protease 1 (Bos taurus, UniProt P00760); test: Binding affinity towards trypsin
T1 sequence (P00760 whole entry): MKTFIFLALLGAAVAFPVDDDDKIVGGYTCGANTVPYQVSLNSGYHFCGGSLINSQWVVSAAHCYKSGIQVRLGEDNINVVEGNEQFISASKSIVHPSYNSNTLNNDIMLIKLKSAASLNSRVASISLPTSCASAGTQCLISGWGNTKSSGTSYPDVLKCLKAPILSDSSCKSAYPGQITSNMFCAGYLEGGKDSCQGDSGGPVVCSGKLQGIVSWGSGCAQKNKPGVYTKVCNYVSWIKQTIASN

Prothrombin = Prothrombin (Bos taurus, UniProt P00735); test: Binding affinity towards thrombin

Coagulation factor X, sequence (P00742 41-179 limits assumed): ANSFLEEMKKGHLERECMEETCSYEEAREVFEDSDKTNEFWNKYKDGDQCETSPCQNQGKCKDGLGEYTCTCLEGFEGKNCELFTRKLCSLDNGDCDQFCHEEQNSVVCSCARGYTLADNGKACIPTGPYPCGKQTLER
Coagulation factor X, sequence (P00742 235-488 limits assumed): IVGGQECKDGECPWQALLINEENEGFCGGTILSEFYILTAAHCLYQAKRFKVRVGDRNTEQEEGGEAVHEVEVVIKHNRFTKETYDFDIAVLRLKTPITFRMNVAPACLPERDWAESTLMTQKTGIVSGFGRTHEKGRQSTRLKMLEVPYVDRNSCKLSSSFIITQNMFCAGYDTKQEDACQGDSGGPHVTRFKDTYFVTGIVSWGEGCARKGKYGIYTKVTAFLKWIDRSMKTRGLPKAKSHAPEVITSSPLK

| Ki (Coagulation factor X) | Ki (Serine protease 1) | Ki (Prothrombin) | Structure (SMILES) |
| --- | --- | --- | --- |
| 3.89 µM | 0.17 µM | 0.00417 µM | CN(C)c1cccc2c(S(=O)(=O)N[C@@H](Cc3cccc(C(=N)N)c3)C(=O)N3CCN(S(C)(=O)=O)CC3)cccc12 |
| 40 µM | 46 µM | 18 µM | CNC(=O)[C@H](Cc1cccc(C(=N)N)c1)NS(=O)(=O)c1ccc(C)cc1 |
| 20 µM | 1 µM | 0.631 µM | N=C(N)c1cccc(C[C@H](NS(=O)(=O)c2ccc3ccccc3c2)C(=O)N2CCC[C@H]2C(=O)OCc2ccccc2)c1 |
| 0.899 µM | 0.851 µM | 0.899 µM | CC(C)c1cc(C(C)C)c(S(=O)(=O)N[C@@H](Cc2cccc(C(=N)N)c2)C(=O)N2CCC[C@H](C(=O)OCc3ccccc3)C2)c(C(C)C)c1 |
| 64.6 µM | 14.1 µM | 1.2 µM | CC1CCN(C(=O)[C@H](Cc2cccc(C(=N)N)c2)NC(=O)OC(C)(C)C)CC1 |
| 15.1 µM | – | 0.34 µM | Cc1ccc(S(=O)(=O)N[C@@H](Cc2cccc(C(=N)N)c2)C(=O)N2CCCCC2)cc1 |
| 2.51 µM | 0.46 µM | 1.8 µM | CC(C)c1cc(C(C)C)c(S(=O)(=O)N[C@@H](Cc2cccc(C(=N)N)c2)C(=O)N2CCC[C@H](C(=O)NCc3ccccc3)C2)c(C(C)C)c1 |
| 17 µM | 0.61 µM | 0.23 µM | N=C(N)c1cccc(C[C@H](NS(=O)(=O)c2cccc3ccccc23)C(=O)N2CCCCC2)c1 |
| 21 µM | 0.22 µM | 0.5 µM | N=C(N)c1cccc(C[C@H](NS(=O)(=O)c2ccc3ccccc3c2)C(=O)N2CCNCC2)c1 |
| 35 µM | 1.1 µM | 0.0579 µM | N=C(N)c1cccc(C[C@H](NS(=O)(=O)c2ccc3ccccc3c2)C(=O)N2CCN(C(=O)CO)CC2)c1 |
| 26 µM | 0.55 µM | 0.021 µM | N=C(N)c1cccc(C[C@H](NS(=O)(=O)c2ccc3ccccc3c2)C(=O)N2CCCCCC2)c1 |
| 130 µM | 16 µM | – | N=C(N)c1cccc(C[C@H](NS(=O)(=O)c2ccc3ccccc3c2)C(=O)N2CCC[C@H]2C(=O)O)c1 |
| 100 µM | 0.78 µM | 0.0889 µM | COc1cc(C)c(S(=O)(=O)N[C@@H](Cc2cccc(C(=N)N)c2)C(=O)N2CCC(C)CC2)c(C)c1C |
| 77.6 µM | 0.02 µM | 0.019 µM | COC(=O)N1CCN(C(=O)[C@H](Cc2cccc(C(=N)N)c2)NS(=O)(=O)c2ccc3ccccc3c2)CC1 |
| 22 µM | 1 µM | 15.1 µM | N=C(N)c1cccc(C[C@H](NS(=O)(=O)c2ccc3ccccc3c2)C(=O)N2CCC(N3CCCCC3)CC2)c1 |
| 36 µM | 1.8 µM | 0.52 µM | COC(=O)[C@H]1[C@@H](C)CCCN1C(=O)[C@H](Cc1cccc(C(=N)N)c1)NS(=O)(=O)c1ccc2ccccc2c1 |
| 2 µM | 0.69 µM | 0.0741 µM | CC1CCN(C(=O)[C@H](Cc2cccc(C(=N)N)c2)NS(=O)(=O)c2c(C(C)C)cc(C(C)C)cc2C(C)C)CC1 |
| 3.2 µM | 2.1 µM | 0.42 µM | COC(=O)[C@H]1CCC[C@H](C)N1C(=O)[C@H](Cc1cccc(C(=N)N)c1)NS(=O)(=O)c1ccc2ccccc2c1 |
| 76 µM | 2.2 µM | 0.35 µM | Cc1ccc(S(=O)(=O)N[C@@H](Cc2cccc(C(=N)N)c2)C(=O)N2CCCC2)cc1 |

| Ki (Coagulation factor X) | Ki (Serine protease 1) | Ki (Prothrombin) | Structure (SMILES) |
| --- | --- | --- | --- |
| 27 µM | 1.2 µM | 0.2 µM | COC(=O)[C@H]1Cc2ccccc2CN1C(=O)[C@H](Cc1cccc(C(=N)N)c1)NS(=O)(=O)c1ccc2ccccc2c1 |
| 3.1 µM | 0.26 µM | 0.013 µM | CCCCOC(=O)[C@H](Cc1cccc(C(=N)N)c1)NS(=O)(=O)c1ccc2ccccc2c1 |
| 16 µM | 0.427 µM | 0.511 µM | CC(C)OC(=O)[C@H]1CCCN(C(=O)[C@H](Cc2cccc(C(=N)N)c2)NS(=O)(=O)c2ccc3ccccc3c2)C1 |
| 33.1 µM | 0.31 µM | 0.26 µM | CNC(=O)[C@H]1CCCN(C(=O)[C@H](Cc2cccc(C(=N)N)c2)NS(=O)(=O)c2ccc3ccccc3c2)C1 |
| 52 µM | 0.71 µM | 0.17 µM | Cc1ccc(S(=O)(=O)N[C@@H](Cc2cccc(C(=N)N)c2)C(=O)N2CCOCC2)cc1 |
| 19 µM | 0.22 µM | 0.037 µM | N=C(N)c1cccc(C[C@H](NS(=O)(=O)c2ccc3ccccc3c2)C(=O)N2CCC(C=O)CC2)c1 |
| 57 µM | 7.94 µM | 2.3 µM | CNC(=O)[C@H]1CCCCN1C(=O)[C@H](Cc1cccc(C(=N)N)c1)NS(=O)(=O)c1ccc2ccccc2c1 |
| 130 µM | 118 µM | 30 µM | N=C(N)c1cccc(C[C@H](NS(=O)(=O)c2ccc3ccccc3c2)C(=O)C(=O)O)c1 |
| 35 µM | 0.27 µM | 3.1 µM | N=C(N)c1cccc(C[C@H](NS(=O)(=O)c2ccc3ccccc3c2)C(=O)N2CCC(C(=O)NCc3ccccc3)CC2)c1 |
| 76 µM | 0.16 µM | 0.16 µM | CNC(=O)C1CCN(C(=O)[C@H](Cc2cccc(C(=N)N)c2)NS(=O)(=O)c2ccc3ccccc3c2)CC1 |
| 3.5 µM | 1.41 µM | 0.11 µM | CC(C)OC(=O)[C@H](Cc1cccc(C(=N)N)c1)NS(=O)(=O)c1ccc2ccccc2c1 |
| 8.09 µM | 0.067 µM | 0.21 µM | N=C(N)c1cccc(C[C@H](NS(=O)(=O)c2ccc3ccccc3c2)C(=O)N2CCC(C(=O)OCc3ccccc3)CC2)c1 |
| 180 µM | – | 0.34 µM | CC1CCN(C(=O)[C@H](Cc2cccc(C(=N)N)c2)NS(=O)(=O)c2cccc3cccnc23)CC1 |
| 10 µM | 32 µM | – | CNC(=O)[C@H](Cc1cccc(C(=N)N)c1)NS(=O)(=O)c1c(C)c(C)c2c(c1C)CCC(C)(C)O2 |
| 38 µM | – | 0.0646 µM | N=C(N)c1cccc(C[C@H](NS(=O)(=O)c2ccc3ccccc3c2)C(=O)N2CCCCC2)c1 |
| 41 µM | 31 µM | – | N=C(N)c1cccc(C[C@H](NS(=O)(=O)c2ccc3ccccc3c2)C(=O)N2CC(C(=O)O)=Cc3ccccc32)c1 |
| 640 µM | 1000 µM | – | CNC(=O)[C@H](Cc1cccc(C(=N)N)c1)NS(=O)(=O)c1c(C)cc(C)cc1C |
| 230 µM | 29 µM | – | CC1CCN(C(=O)[C@@H](N)Cc2cccc(C(=N)N)c2)CC1 |

| Structure (SMILES) | Ki (Coagulation factor X) | Ki (Serine protease 1) | Ki (Prothrombin) |
| --- | --- | --- | --- |
| Cc1ccc(S(=O)(=O)N[C@@H](Cc2cccc(C(=N)N)c2)C(=O)N2CCC(C)CC2)cc1 | 71 µM | 0.52 µM | 0.026 µM |
| COC(=O)[C@H]1CCCCN1C(=O)[C@H](Cc1cccc(C(=N)N)c1)NS(=O)(=O)c1ccc2ccccc2c1 | 46 µM | 1.9 µM | 0.0692 µM |
| CS(=O)(=O)N1CCN(C(=O)[C@@H](N)Cc2cccc(C(=N)N)c2)CC1 | 1000 µM | 29 µM | 13 µM |
| COc1cc(C)c(S(=O)(=O)N[C@@H](Cc2cccc(C(=N)N)c2)C(=O)N2CCN(S(C)(=O)=O)CC2)c(C)c1C | 120 µM | 1.8 µM | 0.032 µM |
| N=C(N)c1cccc(C[C@H](NS(=O)(=O)c2ccc3ccccc3c2)C(=O)N2CCCCCCC2)c1 | 22 µM | 0.61 µM | 0.03 µM |
| N=C(N)c1cccc(C[C@H](NS(=O)(=O)c2ccc3ccccc3c2)C(=O)N2CCC(C(=O)O)CC2)c1 | 43.4 µM | 0.579 µM | 0.57 µM |
| CC(=O)N1CCN(C(=O)[C@H](Cc2cccc(C(=N)N)c2)NS(=O)(=O)c2ccc3ccccc3c2)CC1 | 48 µM | 0.141 µM | – |
| CC1CCN(C(=O)[C@H](Cc2cccc(C(=N)N)c2)NS(=O)(=O)c2ccc3c(c2)C(=O)c2ccccc2C3=O)CC1 | 2.3 µM | 0.074 µM | 0.026 µM |
| N=C(N)c1cccc(C[C@H](NS(=O)(=O)c2ccc3ccccc3c2)C(=O)N2CCOCC2)c1 | 16 µM | 0.21 µM | 0.042 µM |
| Cc1c(C)c(S(=O)(=O)N[C@@H](Cc2cccc(C(=N)N)c2)C(=O)N2CCN(S(C)(=O)=O)CC2)c(C)c2c1OC(C)(C)CC2 | 74.1 µM | 0.76 µM | 0.00741 µM |
| CC1CCN(C(=O)[C@H](Cc2cccc(C(=N)N)c2)NS(=O)(=O)c2ccc3ccccc3c2)CC1 | 41 µM | – | – |
| COC(=O)[C@H]1CCCN(C(=O)[C@H](Cc2cccc(C(=N)N)c2)NS(=O)(=O)c2ccc3ccccc3c2)C1 | 18 µM | 0.389 µM | 0.151 µM |
| CN1CCN(C(=O)[C@H](Cc2cccc(C(=N)N)c2)NS(=O)(=O)c2ccc3ccccc3c2)CC1 | 30 µM | 1.3 µM | 0.036 µM |
| CC(C)(C)c1ccc(S(=O)(=O)N[C@@H](Cc2cccc(C(=N)N)c2)C(=O)N2CCN(S(C)(=O)=O)CC2)cc1 | – | 0.16 µM | 0.00427 µM |
| N=C(N)c1cccc(C[C@H](NS(=O)(=O)c2ccc3ccccc3c2)C(=O)N2Cc3ccccc3C[C@@H]2C(=O)O)c1 | 41.5 µM | 0.13 µM | 0.018 µM |
| CNC(=O)[C@H]1CCCN(C(=O)[C@H](Cc2cccc(C(=N)N)c2)NS(=O)(=O)c2c(C(C)C)cc(C(C)C)cc2C(C)C)C1 | 1.51 µM | 0.794 µM | 0.23 µM |
| COC(=O)[C@H](Cc1cccc(C(=N)N)c1)NS(=O)(=O)c1ccc2ccccc2c1 | 2.51 µM | 2.51 µM | 0.28 µM |
| CC(C)c1cc(C(C)C)c(S(=O)(=O)N[C@@H](Cc2cccc(C(=N)N)c2)C(=O)N2CCC[C@H](C(=O)O)C2)c(C(C)C)c1 | 13 µM | 2.4 µM | – |
| CS(=O)(=O)N1CCN(C(=O)[C@H](Cc2cccc(C(=N)N)c2)NS(=O)(=O)c2cccc3ccccc23)CC1 | 9.71 µM | – | 0.026 µM |
| CS(=O)(=O)N1CCN(C(=O)[C@H](Cc2cccc(C(=N)N)c2)NS(=O)(=O)c2ccc3ccccc3c2)CC1 | 22 µM | 0.19 µM | – |
